From PMC7462607 (eLife, 2020)

Tested on: POLII CTD Serine 2 phosphorylation
Assay: Western blotting of POLII CTD Serine 2 phosphorylation
Format: cell-based, Homo sapiens
Method: Standard SDS-PAGE and western blotting procedures were used with the following modifications. For preparation of total lysates, cells were rinsed with DPBS to remove residual medium and then lysed in 20 mM HEPES-NaOH, pH 8.0, 10 mM NaCl, 2 mM MgCl2, 1% SDS freshly supplemented with 0.5 units/µL of benzonase and 1x cOmplete, Mini, EDTA-free protease inhibitor cocktail (Roche, Bazel, Switzerland). Protein concentrations of the resulting lysates were quantified by the BCA method. Between 30 to 60 µg of proteins were resolved on SDS-PAGE and transferred to nitrocellulose membranes with a pore size of 0.5 μm. Membranes were blocked in 5% nonfat milk PBST (0.1% v/v Tween-20) for 30 min before blotting with antibodies. […]

Cc1cccc(Nc2nc(CC(=O)Nc3ncc(C)s3)cs2)n1 [HQ461, 2-(2-((6-methylpyridin-2-yl)amino)thiazol-4-yl)-N-(5-methylthiazol-2-yl)acetamide]
inhibitory effect on POLII CTD Serine 2 phosphorylation (A549 with CDK12 G731E or G731R mutation): abolished
POLII CTD Serine 2 phosphorylation (parental A549): reduced POLII CTD Serine 2 phosphorylation
